Measured values taken from patent US20260285863A1, “COMPOUNDS CAPABLE OF MODULATING GPR65” (Pathios Therapeutics Limited, priority 2023, published 2026).

Target: T1, human recombinant GPR65 (Homo sapiens, UniProt Q8IYL9)
T1 construct: host or cells: 1321N1 human astrocytoma cells (1321N1-hrGPR65)
Assay: Human GPR65 cAMP HTRF antagonist assay
Format: cell-based
Conditions: 1321N1-hrGPR65 cells, assay pH 7.2, cAMP HTRF; read-out: hGPR65 IC50
Summary of the method: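 1321N1 cells stably expressing human GPR65 were preincubated 30 min at room temperature with compound in KRH pH 7.6 containing 1 mM IBMX and 200 μM EDTA. They were then acid-stimulated to pH 7.2 for 30 min, with pH 7.9 as control. cAMP was read by HTRF (665/620 ratio), and IC50 came from normalised 4-parameter logistic fits.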

T1 sequence (Q8IYL9 whole entry): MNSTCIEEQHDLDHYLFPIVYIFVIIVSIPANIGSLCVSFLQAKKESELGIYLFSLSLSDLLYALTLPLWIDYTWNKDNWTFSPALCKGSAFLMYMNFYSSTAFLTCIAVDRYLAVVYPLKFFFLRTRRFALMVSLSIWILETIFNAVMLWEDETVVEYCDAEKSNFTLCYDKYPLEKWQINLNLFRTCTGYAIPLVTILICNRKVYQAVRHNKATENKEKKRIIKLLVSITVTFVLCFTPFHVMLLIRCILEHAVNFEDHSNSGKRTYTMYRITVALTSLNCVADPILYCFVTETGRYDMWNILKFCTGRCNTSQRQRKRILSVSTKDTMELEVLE

| SMILES | IC50 |
| --- | --- |
| O=C(Nc1cc(Cl)c(-c2ccc(OCC3CN(CC(F)(F)F)C3)nc2)cc1F)N1[C@H]2CC[C@@H]1c1c[nH]c(=O)cc1C2 [Compound 32, (6S,9R)-N-(5-chloro-2-fluoro-4-(6-((1-(2,2,2-trifluoroethyl)azetidin-3-yl)methoxy)pyridin-3-yl)phenyl)-3-oxo-3,5,6,7,8,9-hexahydro-2H-6,9-epiminocyclohepta[c]pyridine-10-carboxamide] | < 500 nM |
| Cn1ncc2cc(-c3cc(F)c(NC(=O)N4[C@H]5CC[C@@H]4c4c[nH]c(=O)cc4C5)cc3Cl)ccc21 [Compound 37, (6S,9R)-N-(5-chloro-2-fluoro-4-(1-methyl-1H-indazol-5-yl)phenyl)-3-oxo-3,5,6,7,8,9-hexahydro-2H-6,9-epiminocyclohepta[c]pyridine-10-carboxamide] | < 500 nM |
| O=C(Nc1cc(Cl)c(-c2ccc(OCC3CC3(F)F)nc2)cc1F)N1[C@H]2CC[C@@H]1c1c[nH]c(=O)cc1C2 (stereo partly drawn) [Compound 38, (6S,9R)-N-(5-chloro-4-(6-((2,2-difluorocyclopropyl)methoxy)pyridin-3-yl)-2-fluorophenyl)-3-oxo-3,5,6,7,8,9-hexahydro-2H-6,9-epiminocyclohepta[c]pyridine-10-carboxamide] | < 500 nM |
| CN(CC(F)(F)F)c1ccnc(-c2cc(F)c(NC(=O)N3[C@H]4CC[C@@H]3c3c[nH]c(=O)cc3C4)cc2Cl)c1 [Compound 39, (6S,9R)-N-(5-chloro-2-fluoro-4-(4-(methyl(2,2,2-trifluoroethyl)amino)pyridin-2-yl)phenyl)-3-oxo-3,5,6,7,8,9-hexahydro-2H-6,9-epiminocyclohepta[c]pyridine-10-carboxamide] | < 500 nM |
| O=C(Nc1cc(Cl)c(-c2ccc(CC(F)(F)F)nc2)cc1F)N1[C@H]2CC[C@@H]1c1c[nH]c(=O)cc1C2 [Compound 40, (6S,9R)-N-(5-chloro-2-fluoro-4-(6-(2,2,2-trifluoroethyl)pyridin-3-yl)phenyl)-3-oxo-3,5,6,7,8,9-hexahydro-2H-6,9-epiminocyclohepta[c]pyridine-10-carboxamide] | < 500 nM |
| O=C(Nc1cc(Cl)c(-c2ccc(OCC3CCOC3)nc2)cc1F)N1[C@H]2CC[C@@H]1c1n[nH]c(=O)cc1C2 (stereo partly drawn) [Compound 41, (6S,9R)-N-(5-chloro-2-fluoro-4-(6-((tetrahydrofuran-3-yl)methoxy)pyridin-3-yl)phenyl)-3-oxo-3,5,6,7,8,9-hexahydro-2H-6,9-epiminocyclohepta[c]pyridazine-10-carboxamide] | < 500 nM |
| O=C(Nc1cc(Cl)c(Cl)cn1)N1[C@@H]2CC[C@H]1[C@@H](F)c1c2ccnc1F [Compound 42, (5R,8S,9S)-N-(4,5-dichloropyridin-2-yl)-1,9-difluoro-6,7,8,9-tetrahydro-5H-5,8-epiminocyclohepta[c]pyridine-10-carboxamide] | < 500 nM |
| CN(CC(F)(F)F)c1cc(-c2cc(F)c(NC(=O)N3[C@H]4CC[C@@H]3c3c[nH]c(=O)cc3C4)cc2Cl)ccn1 [Compound 43, (6S,9R)-N-(5-chloro-2-fluoro-4-(2-(methyl(2,2,2-trifluoroethyl)amino)pyridin-4-yl)phenyl)-3-oxo-3,5,6,7,8,9-hexahydro-2H-6,9-epiminocyclohepta[c]pyridine-10-carboxamide] | < 500 nM |
| O=C(Nc1cc(Cl)c(Cl)cn1)N1[C@H]2CC[C@@H]1c1ccncc1C2 [Compound 44, (5R,8S)-N-(4,5-dichloropyridin-2-yl)-6,7,8,9-tetrahydro-5H-5,8-epiminocyclohepta[c]pyridine-10-carboxamide] | < 500 nM |
| N#Cc1cc(NC(=O)N2[C@H]3CC[C@@H]2c2ccnc(F)c2C3)c(F)cc1Cl [Compound 45, (5R,8S)-N-(4-chloro-5-cyano-2-fluorophenyl)-1-fluoro-6,7,8,9-tetrahydro-5H-5,8-epiminocyclohepta[c]pyridine-10-carboxamide] | < 500 nM |
| O=C(Nc1ccc(Cl)cc1F)N1[C@H]2CC[C@@H]1c1ccnc(F)c1C2 [Compound 46, (5R,8S)-N-(4-chloro-2-fluorophenyl)-1-fluoro-6,7,8,9-tetrahydro-5H-5,8-epiminocyclohepta[c]pyridine-10-carboxamide] | < 500 nM |
| O=C(Nc1cc(Cl)c(Cl)cc1F)N1[C@H]2CC[C@@H]1c1ccncc1C2 [Compound 49, (5R,8S)-N-(4,5-dichloro-2-fluorophenyl)-6,7,8,9-tetrahydro-5H-5,8-epiminocyclohepta[c]pyridine-10-carboxamide] | < 500 nM |
| O=C(Nc1cc(Cl)c(C(F)(F)F)cc1F)N1[C@H]2CC[C@@H]1c1ccncc1C2 [Compound 50, (5R,8S)-N-(5-chloro-2-fluoro-4-(trifluoromethyl)phenyl)-6,7,8,9-tetrahydro-5H-5,8-epiminocyclohepta[c]pyridine-10-carboxamide] | < 500 nM |
| O=C(Nc1cc(Cl)c(COc2ccc(F)cn2)cc1F)N1[C@H]2CC[C@@H]1c1n[nH]c(=O)cc1C2 [Compound 51, (6S,9R)-N-(5-Chloro-2-fluoro-4-(((5-fluoropyridin-2-yl)oxy)methyl)phenyl)-3-oxo-3,5,6,7,8,9-hexahydro-2H-6,9-epiminocyclohepta[c]pyridazine-10-carboxamide] | < 500 nM |
| O=C(Nc1cc(Cl)c(COc2cccc(F)n2)cc1F)N1[C@H]2CC[C@@H]1c1n[nH]c(=O)cc1C2 [Compound 52, (6S,9R)-N-(5-Chloro-2-fluoro-4-(((6-fluoropyridin-2-yl)oxy)methyl)phenyl)-3-oxo-3,5,6,7,8,9-hexahydro-2H-6,9-epiminocyclohepta[c]pyridazine-10-carboxamide] | < 500 nM |
| O=C(Nc1cc(Cl)c(COc2ccccc2)cc1F)N1[C@H]2CC[C@@H]1c1c[nH]c(=O)cc1C2 [Compound 53, (6S,9R)-N-(5-chloro-2-fluoro-4-(phenoxymethyl)phenyl)-3-oxo-3,5,6,7,8,9-hexahydro-2H-6,9-epiminocyclohepta[c]pyridine-10-carboxamide] | < 500 nM |
| O=C(Nc1cc(Cl)c(COc2ccc(OCC(F)(F)F)cn2)cc1F)N1[C@H]2CC[C@@H]1c1c[nH]c(=O)cc1C2 [Compound 54, (6S,9R)-N-(5-chloro-2-fluoro-4-(((5-(2,2,2-trifluoroethoxy)pyridin-2-yl)oxy)methyl)phenyl)-3-oxo-3,5,6,7,8,9-hexahydro-2H-6,9-epiminocyclohepta[c]pyridine-10-carboxamide] | < 500 nM |
| O=C(Nc1cc(Cl)c(COc2ccc(OCC(F)(F)F)cn2)cc1F)N1[C@H]2CC[C@@H]1c1n[nH]c(=O)cc1C2 [Compound 55, (6S,9R)-N-(5-Chloro-2-fluoro-4-(((5-(2,2,2-trifluoroethoxy)pyridin-2-yl)oxy)methyl)phenyl)-3-oxo-3,5,6,7,8,9-hexahydro-2H-6,9-epiminocyclohepta[c]pyridazine-10-carboxamide] | < 500 nM |
| O=C(Nc1cc(Cl)c(COc2cccc(OCC(F)(F)F)n2)cc1F)N1[C@H]2CC[C@@H]1c1n[nH]c(=O)cc1C2 [Compound 56, (6S,9R)-N-(5-chloro-2-fluoro-4-(((6-(2,2,2-trifluoroethoxy)pyridin-2-yl)oxy)methyl)phenyl)-3-oxo-3,5,6,7,8,9-hexahydro-2H-6,9-epiminocyclohepta[c]pyridazine-10-carboxamide] | < 500 nM |
| O=C(Nc1cc(Cl)c(COc2cccc(OCC(F)(F)F)n2)cc1F)N1[C@H]2CC[C@@H]1c1c[nH]c(=O)cc1C2 [Compound 57, (6S,9R)-N-(5-chloro-2-fluoro-4-(((6-(2,2,2-trifluoroethoxy)pyridin-2-yl)oxy)methyl)phenyl)-3-oxo-3,5,6,7,8,9-hexahydro-2H-6,9-epiminocyclohepta[c]pyridine-10-carboxamide] | < 500 nM |
| O=C(Nc1cc(Cl)c(COc2ccc(OC3CCCC3)cn2)cc1F)N1[C@H]2CC[C@@H]1c1c[nH]c(=O)cc1C2 [Compound 58, (6S,9R)-N-(5-chloro-4-(((5-(cyclopentyloxy)pyridin-2-yl)oxy)methyl)-2-fluorophenyl)-3-oxo-3,5,6,7,8,9-hexahydro-2H-6,9-epiminocyclohepta[c]pyridine-10-carboxamide] | < 500 nM |
| O=C(Nc1cc(Cl)c(COc2cccc(OC3CCCC3)n2)cc1F)N1[C@H]2CC[C@@H]1c1n[nH]c(=O)cc1C2 [Compound 59, (6S,9R)-N-(5-chloro-4-(((6-(cyclopentyloxy)pyridin-2-yl)oxy)methyl)-2-fluorophenyl)-3-oxo-3,5,6,7,8,9-hexahydro-2H-6,9-epiminocyclohepta[c]pyridazine-10-carboxamide] | < 500 nM |
| O=C(Nc1cc(Cl)c(-c2ccc(OCC34CNC(C3)C4)nc2)cc1F)N1[C@H]2CC[C@@H]1c1c[nH]c(=O)cc1C2 [Compound 60, (6S,9R)-N-(4-(6-((2-azabicyclo[2.1.1]hexan-4-yl)methoxy)pyridin-3-yl)-5-chloro-2-fluorophenyl)-3-oxo-3,5,6,7,8,9-hexahydro-2H-6,9-epiminocyclohepta[c]pyridine-10-carboxamide] | 500 to 5000 nM |
| CN1CC2(COc3ccc(-c4cc(F)c(NC(=O)N5[C@H]6CC[C@@H]5c5c[nH]c(=O)cc5C6)cc4Cl)cn3)CC1C2 [Compound 61, (6S,9R)-N-(5-Chloro-2-fluoro-4-(6-((2-methyl-2-azabicyclo[2.1.1]hexan-4-yl)methoxy)pyridin-3-yl)phenyl)-3-oxo-3,5,6,7,8,9-hexahydro-2H-6,9-epiminocyclohepta[c]pyridine-10-carboxamide] | 500 to 5000 nM |
| CN1CCC(Oc2ccc(-c3cc(F)c(NC(=O)N4[C@H]5CC[C@@H]4c4c[nH]c(=O)cc4C5)cc3Cl)cn2)C1 (some centres unmarked) [Compound 62] | 500 to 5000 nM |
| O=C(Nc1cc(Cl)c(-c2ccc(OCC3CNC3)nc2)cc1F)N1[C@H]2CC[C@@H]1c1c[nH]c(=O)cc1C2 [Compound 63, (6S,9R)-N-(4-(6-(Azetidin-3-ylmethoxy)pyridin-3-yl)-5-chloro-2-fluorophenyl)-3-oxo-3,5,6,7,8,9-hexahydro-2H-6,9-epiminocyclohepta[c]pyridine-10-carboxamide] | 500 to 5000 nM |
